In ChEMBL document CHEMBL1201862, “PubChem BioAssay data set” (2004):
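Five compound concentrations were applied to cells in 96-well plates for 48 hours; endpoints were derived by simple linear interpolation of the resulting dose-response curve. GI50 = concentration required for 50% inhibition of growth.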 Active and inactive are the calls of the source. No stated cut-off is given here; in the data, active = GI50 up to about 1.1 µM and inactive = higher.

What was measured:
Test in all cases: NCI-60 cell line screen, 48 h
[1] = system: OVCAR-8
[2] = system: HL-60
[3] = system: NCI-H226
[4] = system: SF-268
[5] = system: HT-29
[6] = system: RXF 393
[7] = system: IGROV-1
[8] = system: DLD-1
[9] = system: UACC-62
[10] = system: SNB-78
[11] = system: SK-OV-3
[12] = system: DMS-273
[13] = system: EKVX
[14] = system: SW-620
[15] = system: KM12
[16] = system: XF498
[17] = system: HCT-15
[18] = system: KM-20L2
[19] = system: M19-MEL
[20] = system: SNB-75

Row | Compound | GI50 [1] | GI50 [2] | GI50 [3] | GI50 [4] | GI50 [5] | GI50 [6] | GI50 [7] | GI50 [8] | GI50 [9] | GI50 [10] | GI50 [11] | GI50 [12] | GI50 [13] | GI50 [14] | GI50 [15] | GI50 [16] | GI50 [17] [µM] | GI50 [18] | GI50 [19] | GI50 [20]
1 | c1ccc([P+](Cc2csnn2)(c2ccccc2)c2ccccc2)cc1 | > 100 µM (inactive) | > 100 µM (inactive) | > 100 µM (inactive) | > 100 µM (inactive) | > 100 µM (inactive) | 84.1 µM (inactive) | > 100 µM (inactive) | > 100 µM (inactive) | 57.8 µM (inactive) | > 100 µM (inactive) | > 100 µM (inactive) | > 100 µM (inactive) | > 100 µM (inactive) | > 100 µM (inactive) | > 100 µM (inactive) | > 100 µM (inactive) | > 100 | > 100 µM (inactive) | > 100 µM (inactive) | > 100 µM (inactive)
2 | Cc1[nH]c(=O)[nH]c(=O)c1/C=C/C(=O)NC(CO)CC(C)C (stereo not given) | 160 µM (inactive) | > 361 µM (inactive) | > 375 µM (inactive) | 231 µM (inactive) | 222 µM (inactive) | > 375 µM (inactive) | > 375 µM (inactive) | > 375 µM (inactive) | > 375 µM (inactive) | 373 µM (inactive) | > 300 µM (inactive) | > 375 µM (inactive) | > 375 µM (inactive) | 351 µM (inactive) | > 375 µM (inactive) | 60 µM (inactive) | > 360 | 88.1 µM (inactive) | 322 µM (inactive) | 226 µM (inactive)
3 | CSCC[C@@H](NC(=O)[C@H](CC(C)C)NC(=O)C(Cc1cnc[nH]1)NC(=O)CNC(=O)[C@@H](NC(=O)[C@H](C)NC(=O)[C@H](Cc1cn(C=O)c2ccccc12)NC(=O)[C@H](CCC(N)=O)NC(=O)[C@@H](N)CC(N)=O)C(C)C)C(N)=O (stereo not given in full) | > 100 µM (inactive) | > 100 µM (inactive) | > 100 µM (inactive) | > 100 µM (inactive) | > 100 µM (inactive) | > 100 µM (inactive) | > 100 µM (inactive) | > 100 µM (inactive) | > 100 µM (inactive) | > 100 µM (inactive) | > 100 µM (inactive) | > 100 µM (inactive) | > 100 µM (inactive) | > 100 µM (inactive) | > 100 µM (inactive) | > 100 µM (inactive) | > 100 | > 100 µM (inactive) | > 100 µM (inactive) | > 100 µM (inactive)
